According to US4292321A, “1,3,8-Triazaspirodecane-4-ones, pharmaceutical compositions thereof and method of use thereof” (Warner-Lambert Company, priority 1980, dated 1981):
Where a name gives a salt, the structure may show the parent alone. Read-outs that look alike come from different tables or passages of the source.

Target: T1, dopamine receptor (Bos taurus, UniProt P20288)
T1 construct: from tissue
Test: 3H-haloperidol receptor binding assay (HRBA)
Source text: The compounds of this invention are useful because of their valuable pharmacological properties. […] As with other known neuroleptics, the compounds of this invention readily displace ^3 H-haloperidol from dopamine receptor binding sights in the ^3 H-haloperidol receptor binding assay (HRBA). […] The HRBA screen is described by I. Creese, D. R. Burt and S. H. Snyder, Science 142: 480 (1976) and by B. Seeman, T. Lee, M. Chani-Wong and K. Wong, Nature 261: 717 […].

[1] = read-out: inhibition of 3H-haloperidol binding
[2] = 10 n moles concentration, read-out: inhibition of 3H-haloperidol binding
[3] = 100 n moles concentration, read-out: inhibition of 3H-haloperidol binding

T1 sequence (P20288 whole entry): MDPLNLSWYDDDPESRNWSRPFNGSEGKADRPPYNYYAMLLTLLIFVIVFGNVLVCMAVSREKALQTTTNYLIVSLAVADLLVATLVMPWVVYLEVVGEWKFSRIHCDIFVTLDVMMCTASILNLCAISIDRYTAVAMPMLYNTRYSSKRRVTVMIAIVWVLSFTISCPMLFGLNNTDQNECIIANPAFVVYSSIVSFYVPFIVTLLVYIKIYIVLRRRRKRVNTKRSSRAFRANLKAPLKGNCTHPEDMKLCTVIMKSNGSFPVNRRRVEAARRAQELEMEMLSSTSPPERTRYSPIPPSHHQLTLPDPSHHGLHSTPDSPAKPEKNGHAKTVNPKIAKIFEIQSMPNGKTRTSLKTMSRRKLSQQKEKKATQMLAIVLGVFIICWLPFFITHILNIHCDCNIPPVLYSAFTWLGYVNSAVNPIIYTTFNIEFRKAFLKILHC

Structure (SMILES) | inhibition at 0.01 µM [1] | inhibition at 0.1 µM [1] | other results
COc1ccccc1N1CCN(CCCN(c2ccc(F)cc2)c2ccc(F)cc2)CC1 [Example 35, N,N-bis(4-fluorophenyl)-4-(2-methoxyphenyl)-1-piperazinepropanamine dihydrochloride] | ~28% | ~79% | 
Fc1ccc(OC2=CCN(CCCN(c3ccc(F)cc3)c3ccc(F)cc3)CC2)cc1 [Example 25, 4-(4-Fluorophenoxy)-N,N-bis(4-fluorophenyl)-1,2,3,6-tetrahydro-1-pyridinepropanamine-d-2,3-dihydroxybutanedioate] |  |  | inhibition of 3H-haloperidol binding (1 n mole concentration): no inhibition; inhibition at 0.01 µM [2]: ~43%
Fc1ccc(NC2CCN(CCCN(c3ccccc3)c3ccccc3)CC2)cc1 [Example 42, 4-[(4-Fluorophenyl)amino]-N,N-diphenyl-1-piperidinepropanamine ethanedioate] | ~26% | ~90% | 
CC(C)Sc1ccccc1N1CCN(CCCN(c2ccccc2)c2ccccc2)CC1.Cl [Example 33, 4-[2-[(1-Methylethyl)thio]phenyl]-N,N-diphenyl-1-piperazinepropanamine hydrochloride] |  | ~28% | inhibition of 3H-haloperidol binding (10 n moles concentration): no inhibition
OC1(c2ccc(F)cc2)CCN(CCCN(c2ccc(F)cc2)c2ccc(F)cc2)CC1 [Example 19, 4-(4-Fluorophenyl)-1-(3-[bis(4-fluorophenyl)amino]propyl)-4-piperidinol hydrochloride] | ~82% |  | inhibition at 0.001 µM [1]: ~25%
O=c1[nH]c2ccccc2n1C1=CCN(CCCN(c2ccc(F)cc2)c2ccc(F)cc2)CC1 [Example 7, 1-[1-[3-[Bis(4-fluorophenyl)amino]propyl]-1,2,3,6-tetrahydro-4-pyridinyl]-1,3-dihydro-2H-benzimidazol-2-one hydrochloride] | ~22% | ~67% | 
OC1(c2cccc(F)c2)CCN(CCCN(c2ccccc2)c2ccccc2)CC1 [Example 18, 1-[3-(Diphenylamino)propyl]-4-(3-fluorophenyl)-4-piperidinol ethanedioate] | ~23% | ~83% | 
c1ccc(CN2CCN(CCCN(c3ccccc3)c3ccccc3)CC2)cc1 [Example 32, N,N-diphenyl-4-(phenylmethyl)-1-piperazinepropanamine ethanedioate] | ~16% | ~33% | 
c1ccc(N(CCCNC2=NC3CCC2CC3)c2ccccc2)cc1 [Example 46, N'-2-azabicyclo[2,2,2]-oct-2-en-3-yl-N,N-diphenyl-1,3-propanediamine] |  |  | inhibition at 0.01 µM [2]: ~3%; inhibition at 0.1 µM [3]: ~12%
Cc1cccc(N(CCCN2CCC(n3c(=O)[nH]c4ccccc43)CC2)c2ccccc2)c1 [Example 11, 1,3-Dihydro-1-[1-(3-[(3-methylphenyl)phenylamino]propyl-4-piperidinyl]-2H-benzimidazol-2-one hydrochloride] |  |  | inhibition at 0.01 µM [2]: ~61%; inhibition at 0.1 µM [3]: ~91%
O=c1[nH]c2ccccc2n1C1CCN(CCCN(c2ccccc2)c2ccc(F)cc2)CC1 [Example 15, 1,3-Dihydro-1-[1-[3-[(4-fluorophenyl)phenylamino]propyl]-4-piperidinyl]-2H-benzimidazol-2-one] |  |  | inhibition at 0.01 µM [2]: ~74%; inhibition at 0.1 µM [3]: ~100%
O=C1NCN(c2ccc(F)cc2)C12CCN(CCCN(c1ccccc1)c1ccccc1)CC2 [Example 2, 8-[3-(Diphenylamino)propyl]-1-(4-fluorophenyl)-1,3,8-triazaspiro[4,5]decan-4-one] | ~76% | ~85% | 
O=C1NCN(c2ccccc2)C12CCN(CCCN(c1ccc(F)cc1)c1ccc(F)cc1)CC2 [Example 1, 8-[3-(Bis-[4-fluorophenyl]amino)propyl]-1-phenyl-1,3,8-triazaspiro[4,5]decan-4-one hydrobromide] | ~73% | ~77% | 
O=c1[nH]c2ccccc2n1C1CCN(CCCN(c2ccccc2)c2ccccc2)CC1 [Example 9, 1-[1-(3-(Diphenylamino]propyl)-4-piperidinyl]-1,3-dihydro-2H-benzimidazol-2-one hydrochloride] | ~68% | ~91% | 
